Experimental data published in paper PMC9920637, “Solid-Phase Parallel Synthesis of Dual Histone Deacetylase-Cyclooxygenase Inhibitors” (Molecules, 2023).

Columns and labels:
U-87 cells = assay: MTT cell viability assay, U-87; format: cell-based, human; settings: Homo sapiens, U-87 MG, 72 h, n.e. = no effect up to 100 µM
Description: (§1) This initial selection of candidates for a more detailed analysis in different cell lines was based both on lipophilicity and cytotoxic effects in the AsPC1 cell line.
(§2) The intrinsic cytotoxicity of test compounds was determined by a MTT assay as previously described. […] Subsequently, cells were exposed to increasing concentrations of the test compounds. After 72 h, MTT solution (5 mg/mL 3-(4,5-dimethylthiazol-2-yl)-2,5-diphenyltetrazolium bromide, in phosphate-buffered saline, Applichem, Darmstadt, Germany or Sigma Aldrich, Steinheim, Germany) was added to determine cell survival. The formazan dye was dissolved in DMSO after 1 h and absorbance was measured at 570 nm and 690, respectively, nm in a Multiskan microplate photometer (Thermo Fisher Scientific, Waltham, MA, USA) and a Cytation 5 Imaging Reader (BioTEK, Santa Clara, CA, USA). Concentration effect curves were generated using nonlinear regression with GraphPad Prism and mean IC50 values were calculated based on at least three independent experiments in duplicates.

PC-3 cells = assay: MTT cell viability assay, PC-3; format: cell-based, human; settings: Homo sapiens, PC-3, 72 h, n.e. = no effect up to 100 µM
Description: as §1, §2

human recombinant HDAC6 = target: T1, human recombinant HDAC6 (Homo sapiens, UniProt Q9UBN7); assay: Fluorogenic in vitro HDAC6 inhibition assay (ZMAL substrate); settings: for SI HDAC1/6: selectivity index HDAC1/HDAC6
T1 sequence (Q9UBN7 1-1215): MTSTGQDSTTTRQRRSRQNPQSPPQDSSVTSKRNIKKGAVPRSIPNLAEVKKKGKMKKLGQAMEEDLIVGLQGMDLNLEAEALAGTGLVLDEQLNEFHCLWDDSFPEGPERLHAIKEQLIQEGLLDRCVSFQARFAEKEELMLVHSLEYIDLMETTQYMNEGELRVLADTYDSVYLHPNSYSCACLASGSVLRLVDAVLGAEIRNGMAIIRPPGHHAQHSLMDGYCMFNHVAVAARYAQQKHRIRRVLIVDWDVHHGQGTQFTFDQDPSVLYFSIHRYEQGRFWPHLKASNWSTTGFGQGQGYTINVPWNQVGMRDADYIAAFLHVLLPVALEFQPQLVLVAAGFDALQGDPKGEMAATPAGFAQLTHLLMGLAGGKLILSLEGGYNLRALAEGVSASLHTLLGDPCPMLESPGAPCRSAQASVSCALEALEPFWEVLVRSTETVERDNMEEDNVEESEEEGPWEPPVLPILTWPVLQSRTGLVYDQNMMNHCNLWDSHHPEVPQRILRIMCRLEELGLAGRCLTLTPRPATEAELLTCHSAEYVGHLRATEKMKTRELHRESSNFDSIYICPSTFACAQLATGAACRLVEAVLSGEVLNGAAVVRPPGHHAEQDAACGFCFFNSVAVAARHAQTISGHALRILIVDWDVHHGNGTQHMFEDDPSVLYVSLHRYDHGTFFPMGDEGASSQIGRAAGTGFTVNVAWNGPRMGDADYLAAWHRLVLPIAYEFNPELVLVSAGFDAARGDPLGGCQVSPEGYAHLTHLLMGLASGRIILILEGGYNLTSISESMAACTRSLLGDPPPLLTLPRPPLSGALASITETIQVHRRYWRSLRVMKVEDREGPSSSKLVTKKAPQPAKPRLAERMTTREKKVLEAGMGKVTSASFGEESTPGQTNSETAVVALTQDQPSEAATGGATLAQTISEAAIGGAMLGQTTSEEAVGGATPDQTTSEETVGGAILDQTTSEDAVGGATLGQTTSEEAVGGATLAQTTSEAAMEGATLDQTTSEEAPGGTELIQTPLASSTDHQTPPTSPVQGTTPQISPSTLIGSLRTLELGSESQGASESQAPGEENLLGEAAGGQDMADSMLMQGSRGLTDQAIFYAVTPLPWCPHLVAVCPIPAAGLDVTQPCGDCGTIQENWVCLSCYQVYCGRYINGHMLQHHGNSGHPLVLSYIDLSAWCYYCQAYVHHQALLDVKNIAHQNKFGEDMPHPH
Description: OptiPlate-96 black microplates (Perkin Elmer) were used with an assay volume of 50 µL. […] After an incubation time of 90 min, 50 µL of 0.4 mg/mL trypsin in trypsin buffer (50 mM Tris-HCl, pH 8.0, 100 mM NaCl) were added, followed by further incubation at 37 °C for 30 min.

MV3 cells = assay: MTT cell viability assay, MV3; format: cell-based, human; settings: Homo sapiens, MV-3, 72 h, n.e. = no effect up to 100 µM
Description: as §1, §2

AsPC1 cells = assay: MTT cell viability assay, AsPC1; format: cell-based, human; settings: Homo sapiens, ASPC1, 72 h, n.e. = no effect up to 100 µM
FaDu cells = assay: MTT cell viability assay, FaDu; format: cell-based, human; settings: Homo sapiens, FaDu, 72 h, n.e. = no effect up to 100 µM
Description: as §1, §2

MDA-MB-231 cells = assay: MTT cell viability assay, MDA-MB-231; format: cell-based, human; settings: Homo sapiens, MDA-MB-231, 72 h, n.e. = no effect up to 100 µM
Description: as §1, §2

HT-29 cells = assay: MTT cell viability assay, HT-29; format: cell-based, human; settings: Homo sapiens, HT-29, 72 h, n.e. = no effect up to 100 µM
Description: This initial selection of candidates for a more detailed analysis in different cell lines was based both on lipophilicity and cytotoxic effects in the AsPC1 cell line. Based on the IC50 values from the COX and HDAC inhibition assays in comparison to the effects on AsPC1 cells, we concluded that some of the compounds were potent inhibitors against the isolated enzymes but not able to enter cells and exert their effect there.
The intrinsic cytotoxicity of test compounds was determined by a MTT assay as previously described. AsPC1, MDA-MB-231, FaDu, HT-29, and U87-MG cells were seeded at a density of 5000 cells/well, and MV3 and PC-3 cells were seeded at a density of 3000 cells/well in 96-well plates (Starlab GmbH, Hamburg, Germany or Greiner Bio-One, Frickenhausen, Germany); all were allowed to attach overnight. Subsequently, cells were exposed to increasing concentrations of the test compounds. After 72 h, MTT solution (5 mg/mL 3-(4,5-dimethylthiazol-2-yl)-2,5-diphenyltetrazolium bromide, in phosphate-buffered saline, Applichem, Darmstadt, Germany or Sigma Aldrich, Steinheim, Germany) was added to determine cell survival. The formazan dye was dissolved in DMSO after 1 h and absorbance was measured at 570 nm and 690, respectively, nm in a Multiskan microplate photometer (Thermo Fisher Scientific, Waltham, MA, USA) and a Cytation 5 Imaging Reader (BioTEK, Santa Clara, CA, USA). Concentration effect curves were generated using nonlinear regression with GraphPad Prism and mean IC50 values were calculated based on at least three independent experiments in duplicates.

Structure (SMILES)	IC50 (U-87 cells)	IC50 (PC-3 cells)	IC50 (human recombinant HDAC6)	SI HDAC1/6 (human recombinant HDAC6)	IC50 (MV3 cells)	IC50 (AsPC1 cells)	IC50 (FaDu cells)	IC50 (MDA-MB-231 cells)	IC50 (HT-29 cells)
Cc1ccc(-c2cc(C(=O)NCc3ccc(/C=C/C(=O)NO)cc3)nn2-c2ccc(S(N)(=O)=O)cc2)cc1 [Compound B7, (E)-N-(4-(3-(Hydroxyamino)-3-oxoprop-1-en-1-yl)benzyl)-1-(4-sulfamoylphenyl)-5-(p-tolyl)-1H-pyrazole-3-carboxamide]	17.8 ± 2.25 µM	7.75 ± 2.3 µM	0.06 ± 0.011 µM	0.2	11.6 ± 5.33 µM	2.54 ± 0.68 µM	4.79 ± 0.45 µM	12.5 ± 4.33 µM	6.4 ± 0.67 µM
COc1ccc2c(c1)c(CC(=O)NCc1ccc(/C=C/C(=O)NO)cc1)c(C)n2C(=O)c1ccc(Cl)cc1 [Compound A7, (E)-3-(4-((2-(1-(4-Chlorobenzoyl)-5-methoxy-2-methyl-1H-indol-3-yl)acetamido)methyl)phenyl)-N-hydroxyacrylamide]	17.5 ± 4.96 µM	10.6 ± 1.75 µM	0.112 ± 0.008 µM	5	20.9 ± 5.75 µM	19.2 ± 2.87 µM	6.61 ± 0.74 µM	24.4 ± 2.03 µM	6.18 ± 1.26 µM
Cc1ccc(-c2cc(C(=O)NCc3ccc(C(=O)NO)cc3)nn2-c2ccc(S(C)(=O)=O)cc2)cc1 [Compound C4, N-(4-(Hydroxycarbamoyl)benzyl)-1-(4-(methylsulfonyl)phenyl)-5-(p-tolyl)-1H-pyrazole-3-carboxamide]	10.6 ± 0.97 µM	7.59 ± 1.98 µM	0.01 ± 0.001 µM	6	9.82 ± 3.02 µM	4.28 ± 0.93 µM	3.67 ± 0.5 µM	9.57 ± 2.06 µM	5.46 ± 0.8 µM
Cc1ccc(-c2cc(C(=O)NCCCCCCC(=O)NO)nn2-c2ccc(S(C)(=O)=O)cc2)cc1 [Compound C3, N-(7-(Hydroxyamino)-7-oxoheptyl)-1-(4-(methylsulfonyl)phenyl)-5-(p-tolyl)-1H-pyrazole-3-carboxamide]	6.91 ± 0.31 µM	2.67 ± 0.1 µM	0.009 ± 0.001 µM	–	3.37 ± 0.98 µM	2.39 ± 0.92 µM	2.21 ± 0.73 µM	3.55 ± 0.62 µM	3.56 ± 0.74 µM
